Test results as given in US12258328B2, “6-membered heteroaryl-containing aminopyridine compounds as EGFR inhibitors” (YUHAN CORPORATION, priority 2021, dated 2025).
Like-named read-outs stand apart in the source and are kept apart here.

Assays:
[1] = target: EGFR del19/T790M/C797S (Homo sapiens, UniProt P00533, C797S/DEL746-750/T790M); assay: Biochemical EGFR kinase assay (Lance Ultra TR-FRET), triple mutant del19/T790M/C797S
Summary of the method: (§1)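 Kinase activity is measured by TR-FRET phosphopeptide detection. Compounds span 0.003 μM to 10 μM; the 1 h reaction at room temperature is quenched with EDTA, then labelled antibody (2 nM) is incubated 60 min before reading.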

[2] = target: EGFR del19/C797S (Homo sapiens, UniProt P00533, C797S/DEL746-750); assay: Biochemical EGFR kinase assay (Lance Ultra TR-FRET), double mutant del19/C797S
Summary of the method: as §1

[3] = target: EGFR L858R/C797S (Homo sapiens, UniProt P00533, C797S/L858R); assay: Biochemical EGFR kinase assay (Lance Ultra TR-FRET), double mutant L858R/C797S
Summary of the method: as §1

[4] = target: EGFR wildtype (Homo sapiens, UniProt P00533); assay: Biochemical EGFR kinase assay (Lance Ultra TR-FRET), wildtype
Summary of the method: as §1

[5] = target: EGFR L858R/T790M/C797S (Homo sapiens, UniProt P00533, C797S/L858R/T790M); assay: Biochemical EGFR kinase assay (Lance Ultra TR-FRET), triple mutant L858R/T790M/C797S
Summary of the method: as §1

[6] = Km ATP, read-out: IC50 del19/T790M/C797S (nM) Km ATP
[7] = Km ATP, read-out: IC50 del19/C797S (nM) Km ATP
[8] = Km ATP, read-out: IC50 L858R/C797S (nM) Km ATP
[9] = Km ATP, read-out: IC50 WT (nM) Km ATP
[10] = Km ATP, read-out: IC50 L858R/T790M/C797S (nM) Km ATP
[11] = ATP at Km, read-out: IC50 del19/T790M/C797S, Km ATP
[12] = IC50 del19/T790M/C797S, 100 μM ATP
[13] = ATP at Km, read-out: IC50 del19/C797S, Km ATP
[14] = ATP at Km, read-out: IC50 L858R/C797S, Km ATP
[15] = ATP at Km, read-out: IC50 WT, Km ATP
[16] = ATP at Km, read-out: IC50 L858R/T790M/C797S, Km ATP
[17] = IC50 L858R/T790M/C797S, 100 μM ATP
[18] = IC50 del19/T790M/C797S (nM) 100 μM ATP, 100 μM ATP
[19] = IC50 del19/C797S (nM) 100 μM ATP, 100 μM ATP
[20] = IC50 L858R/C797S (nM) 100 μM ATP, 100 μM ATP
[21] = IC50 WT (nM) 100 μM ATP, 100 μM ATP
[22] = IC50 L858R/T790M/C797S (nM) 100 μM ATP, 100 μM ATP

EGFR L858R/C797S, sequence (P00533 25-1210 C797S/L858R): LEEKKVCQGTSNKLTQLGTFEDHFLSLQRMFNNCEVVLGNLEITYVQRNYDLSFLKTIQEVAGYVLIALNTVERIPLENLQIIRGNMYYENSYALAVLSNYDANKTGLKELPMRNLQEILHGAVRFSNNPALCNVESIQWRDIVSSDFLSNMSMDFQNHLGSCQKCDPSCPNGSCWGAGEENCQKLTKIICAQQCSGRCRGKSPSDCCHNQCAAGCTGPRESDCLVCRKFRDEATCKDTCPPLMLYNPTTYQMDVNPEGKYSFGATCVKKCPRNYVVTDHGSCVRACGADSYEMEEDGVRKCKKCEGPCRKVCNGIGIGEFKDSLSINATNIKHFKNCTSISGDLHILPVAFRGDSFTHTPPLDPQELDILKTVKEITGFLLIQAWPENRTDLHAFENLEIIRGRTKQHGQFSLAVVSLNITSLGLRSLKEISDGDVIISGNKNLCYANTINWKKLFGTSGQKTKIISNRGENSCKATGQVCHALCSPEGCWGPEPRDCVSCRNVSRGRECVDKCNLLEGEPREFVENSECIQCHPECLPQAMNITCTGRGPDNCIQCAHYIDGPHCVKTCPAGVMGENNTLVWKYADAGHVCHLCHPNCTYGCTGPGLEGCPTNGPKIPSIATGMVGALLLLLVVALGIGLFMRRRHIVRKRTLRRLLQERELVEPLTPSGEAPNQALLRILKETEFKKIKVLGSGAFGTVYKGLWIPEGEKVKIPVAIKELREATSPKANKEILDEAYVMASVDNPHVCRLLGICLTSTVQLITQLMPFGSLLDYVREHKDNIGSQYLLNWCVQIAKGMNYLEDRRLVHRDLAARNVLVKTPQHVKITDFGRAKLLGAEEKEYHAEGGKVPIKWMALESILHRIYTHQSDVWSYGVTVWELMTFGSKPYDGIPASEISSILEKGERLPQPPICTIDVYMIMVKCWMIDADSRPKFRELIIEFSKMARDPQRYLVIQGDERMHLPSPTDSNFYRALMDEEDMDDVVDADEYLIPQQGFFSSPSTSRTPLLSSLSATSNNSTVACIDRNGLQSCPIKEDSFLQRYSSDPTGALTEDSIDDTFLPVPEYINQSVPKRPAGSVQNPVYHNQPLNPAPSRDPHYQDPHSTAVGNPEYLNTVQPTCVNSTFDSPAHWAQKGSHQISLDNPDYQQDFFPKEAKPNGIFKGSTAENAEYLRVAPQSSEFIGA
EGFR wildtype, sequence (P00533 25-1210): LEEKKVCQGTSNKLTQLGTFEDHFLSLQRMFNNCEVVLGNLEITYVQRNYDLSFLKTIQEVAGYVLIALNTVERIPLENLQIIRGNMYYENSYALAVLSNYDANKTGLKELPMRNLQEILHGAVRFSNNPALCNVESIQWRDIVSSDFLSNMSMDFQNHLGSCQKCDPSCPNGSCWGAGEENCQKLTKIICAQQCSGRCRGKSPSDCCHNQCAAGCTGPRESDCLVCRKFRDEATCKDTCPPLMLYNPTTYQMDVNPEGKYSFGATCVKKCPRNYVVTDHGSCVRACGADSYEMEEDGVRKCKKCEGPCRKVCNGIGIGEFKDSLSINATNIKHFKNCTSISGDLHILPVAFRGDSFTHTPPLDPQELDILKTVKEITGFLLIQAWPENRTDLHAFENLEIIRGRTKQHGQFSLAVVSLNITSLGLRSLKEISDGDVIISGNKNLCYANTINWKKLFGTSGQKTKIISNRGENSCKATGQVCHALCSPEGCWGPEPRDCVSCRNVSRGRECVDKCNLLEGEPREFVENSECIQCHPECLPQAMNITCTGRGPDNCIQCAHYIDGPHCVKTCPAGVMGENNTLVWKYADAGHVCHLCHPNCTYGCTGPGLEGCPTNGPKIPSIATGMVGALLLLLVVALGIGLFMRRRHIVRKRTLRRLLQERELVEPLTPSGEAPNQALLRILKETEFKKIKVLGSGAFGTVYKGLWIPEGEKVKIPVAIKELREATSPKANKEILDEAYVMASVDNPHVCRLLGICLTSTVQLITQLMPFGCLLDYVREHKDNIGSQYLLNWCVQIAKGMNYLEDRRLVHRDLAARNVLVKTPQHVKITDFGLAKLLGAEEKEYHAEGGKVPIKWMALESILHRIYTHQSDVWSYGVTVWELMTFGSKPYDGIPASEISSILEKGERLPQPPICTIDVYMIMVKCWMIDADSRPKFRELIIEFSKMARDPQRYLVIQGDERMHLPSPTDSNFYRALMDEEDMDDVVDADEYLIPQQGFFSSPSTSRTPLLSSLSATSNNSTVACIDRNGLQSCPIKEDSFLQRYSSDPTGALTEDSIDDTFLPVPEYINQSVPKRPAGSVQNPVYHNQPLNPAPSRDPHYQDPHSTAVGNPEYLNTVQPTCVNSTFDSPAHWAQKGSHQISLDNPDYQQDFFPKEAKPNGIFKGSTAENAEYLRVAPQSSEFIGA
EGFR del19/C797S, sequence (P00533 with tags, fused parts or gaps DEL746-750/C797S): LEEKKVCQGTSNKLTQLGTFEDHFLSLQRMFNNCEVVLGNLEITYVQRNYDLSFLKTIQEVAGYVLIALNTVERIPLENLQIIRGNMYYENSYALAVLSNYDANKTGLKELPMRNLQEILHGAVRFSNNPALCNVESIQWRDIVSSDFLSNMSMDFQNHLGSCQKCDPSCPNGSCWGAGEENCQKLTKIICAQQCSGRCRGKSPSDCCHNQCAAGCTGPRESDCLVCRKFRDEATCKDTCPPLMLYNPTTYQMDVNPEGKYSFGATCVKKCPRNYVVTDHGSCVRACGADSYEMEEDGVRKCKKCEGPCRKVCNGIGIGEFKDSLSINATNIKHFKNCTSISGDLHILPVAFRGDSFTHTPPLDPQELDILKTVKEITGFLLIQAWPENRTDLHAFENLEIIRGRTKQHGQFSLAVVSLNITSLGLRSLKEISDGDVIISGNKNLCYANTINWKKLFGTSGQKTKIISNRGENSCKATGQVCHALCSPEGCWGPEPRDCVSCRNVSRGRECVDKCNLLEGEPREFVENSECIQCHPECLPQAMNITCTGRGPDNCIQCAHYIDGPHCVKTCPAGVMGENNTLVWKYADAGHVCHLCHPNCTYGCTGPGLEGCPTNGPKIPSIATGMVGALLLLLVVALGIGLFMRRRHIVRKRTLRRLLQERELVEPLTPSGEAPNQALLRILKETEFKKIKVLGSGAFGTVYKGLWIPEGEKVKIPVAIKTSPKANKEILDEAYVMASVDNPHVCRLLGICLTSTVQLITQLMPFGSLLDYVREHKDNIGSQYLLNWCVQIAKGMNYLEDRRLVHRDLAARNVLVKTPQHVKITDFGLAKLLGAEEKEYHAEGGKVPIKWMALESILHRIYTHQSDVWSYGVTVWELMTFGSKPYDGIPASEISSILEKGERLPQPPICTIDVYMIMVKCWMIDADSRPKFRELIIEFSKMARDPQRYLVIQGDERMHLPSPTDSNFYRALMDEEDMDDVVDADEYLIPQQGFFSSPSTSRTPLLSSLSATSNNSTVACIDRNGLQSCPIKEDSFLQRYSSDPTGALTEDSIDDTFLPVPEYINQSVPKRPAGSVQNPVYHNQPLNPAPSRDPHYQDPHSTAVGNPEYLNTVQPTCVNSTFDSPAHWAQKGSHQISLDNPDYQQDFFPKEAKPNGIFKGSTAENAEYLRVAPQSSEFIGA
EGFR L858R/T790M/C797S, sequence (P00533 25-1210 T790M/C797S/L858R): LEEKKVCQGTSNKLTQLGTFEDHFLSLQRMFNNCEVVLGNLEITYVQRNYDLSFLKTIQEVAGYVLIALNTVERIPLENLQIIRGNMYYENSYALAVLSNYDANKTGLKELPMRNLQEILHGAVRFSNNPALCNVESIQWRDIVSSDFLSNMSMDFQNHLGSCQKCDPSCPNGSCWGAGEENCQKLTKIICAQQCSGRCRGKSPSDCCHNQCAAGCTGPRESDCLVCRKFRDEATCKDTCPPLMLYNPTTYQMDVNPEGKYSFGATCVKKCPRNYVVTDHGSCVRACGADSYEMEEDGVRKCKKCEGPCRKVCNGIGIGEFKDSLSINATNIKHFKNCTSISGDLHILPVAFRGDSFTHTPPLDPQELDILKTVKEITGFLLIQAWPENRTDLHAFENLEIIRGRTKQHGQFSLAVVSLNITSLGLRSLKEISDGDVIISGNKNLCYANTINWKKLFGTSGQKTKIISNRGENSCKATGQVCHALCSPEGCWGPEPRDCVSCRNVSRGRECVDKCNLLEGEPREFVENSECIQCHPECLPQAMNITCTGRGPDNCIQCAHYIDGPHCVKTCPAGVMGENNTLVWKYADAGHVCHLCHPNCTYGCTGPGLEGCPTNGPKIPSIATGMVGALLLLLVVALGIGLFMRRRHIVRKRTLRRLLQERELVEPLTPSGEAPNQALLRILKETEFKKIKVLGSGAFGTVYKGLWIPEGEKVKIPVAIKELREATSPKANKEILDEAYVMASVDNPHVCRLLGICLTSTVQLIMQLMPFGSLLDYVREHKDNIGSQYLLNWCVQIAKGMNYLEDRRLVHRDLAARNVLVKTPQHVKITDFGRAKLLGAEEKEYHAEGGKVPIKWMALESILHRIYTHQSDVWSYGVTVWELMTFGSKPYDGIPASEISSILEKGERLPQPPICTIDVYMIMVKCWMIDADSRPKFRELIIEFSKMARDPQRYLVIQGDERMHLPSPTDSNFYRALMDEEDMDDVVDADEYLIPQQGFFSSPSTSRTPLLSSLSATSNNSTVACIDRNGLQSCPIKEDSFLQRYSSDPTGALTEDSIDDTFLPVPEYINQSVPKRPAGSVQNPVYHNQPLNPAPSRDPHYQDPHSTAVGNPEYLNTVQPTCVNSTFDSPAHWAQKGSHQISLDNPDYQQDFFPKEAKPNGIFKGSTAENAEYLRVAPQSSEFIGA

Structure (SMILES) | IC50 [1, 6] | IC50 [2, 7] | IC50 [3, 8] | IC50 [4, 9] | IC50 [5, 10] | IC50 [2, 19] | IC50 [3, 20] | IC50 [4, 21] | IC50 [5, 22] | other results
CC(C)Nc1cc(Nc2ccnc(-c3cnn(S(=O)(=O)C4CC4)c3)n2)ncc1-c1cnc(OC(F)F)cn1 [Example 127, N^2-(2-(1-(Cyclopropylsulfonyl)-1H-pyrazol-4-yl)pyrimidin-4-yl)-5-(5-(difluoromethoxy)pyrazin-2-yl)-N^4-isopropylpyridine-2,4-diamine] | 17.5 nM | > 10000 nM | > 10000 nM | > 10000 nM | 6.6 nM | – | – | – | – | –
Cc1ccc(-c2cnc(Nc3ccnc(-c4cnn(S(=O)(=O)C5CC5)c4)n3)cc2N[C@H]2CC[C@@H](C(C)(C)O)CC2)nc1F [Example 180, 2-((1s,4s)-4-((6′-((2-(1-(Cyclopropylsulfonyl)-1H-pyrazol-4-yl)pyrimidin-4-yl)amino)-6-fluoro-5-methyl-[2,3′-bipyridin]-4′-yl)amino)cyclohexyl)propan-2-ol] | – | – | – | – | – | – | – | – | – | IC50 [1, 11]: 5.8 nM; IC50 [1, 12]: 8.5 nM; IC50 [2, 13]: 6 nM; IC50 ([2]; IC50 del19/C797S, 100 μM ATP): 30.7 nM; IC50 [3, 14]: 12 nM; IC50 ([3]; IC50 L858R/C797S, 100 μM ATP): 67.7 nM; IC50 [4, 15]: 47.5 nM; IC50 ([4]; IC50 WT, 100 μM ATP): > 10000 nM; IC50 [5, 16]: 2.5 nM; IC50 [5, 17]: 9.1 nM
Cc1ccc(-c2cnc(Nc3ccnc(-c4cnn(S(=O)(=O)C5CC5)c4)n3)cc2N[C@H]2CC[C@@](C)(O)CC2)nc1F [Example 179, (1s,4s)-4-((6′-((2-(1-(Cyclopropylsulfonyl)-1H-pyrazol-4-yl)pyrimidin-4-yl)amino)-6-fluoro-5-methyl-[2,3′-bipyridin]-4′-yl)amino)-1-methylcyclohexan-1-ol] | – | – | – | – | – | – | – | – | – | IC50 [1, 11]: 0.9 nM; IC50 [2, 13]: 0.6 nM; IC50 ([2]; IC50 del19/C797S, 100 μM ATP): 2.8 nM; IC50 ([3]; IC50 L858R/C797S, 100 μM ATP): 3.6 nM; IC50 [4, 15]: 4.1 nM; IC50 ([4]; IC50 WT, 100 μM ATP): > 10000 nM; IC50 [5, 16]: 0.4 nM
CC(C)(O)c1ccc(-c2cnc(Nc3ccnc(-c4cnn(S(=O)(=O)C5CC5)c4)n3)cc2N[C@H]2CC[C@@](C)(O)CC2)nn1 [Example 86, (1s,4s)-4-((2-((2-(1-(Cyclopropylsulfonyl)-1H-pyrazol-4-yl)pyrimidin-4-yl)amino)-5-(6-(2-hydroxypropan-2-yl)pyridazin-3-yl)pyridin-4-yl)amino)-1-methylcyclohexan-1-ol] | 0.2 nM | 0.3 nM | 0.4 nM | 3.6 nM | 0.1 nM | 0.4 nM | 11.4 nM | 1480 nM | 0.2 nM | IC50 [1, 18]: 1.6 nM
CN(C)c1ccnc(-c2cnc(Nc3ccnc(-c4cnn(S(=O)(=O)C5CC5)c4)n3)cc2N[C@H]2CC[C@@](C)(O)CC2)n1 [Example 41, (1s,4s)-4-((2-((2-(1-(Cyclopropylsulfonyl)-1H-pyrazol-4-yl)pyrimidin-4-yl)amino)-5-(4-(dimethylamino)pyrimidin-2-yl)pyridin-4-yl)amino)-1-methylcyclohexan-1-ol] | 0.3 nM | 4.5 nM | 4 nM | 43.6 nM | 0.2 nM | 5.1 nM | 523 nM | > 10000 nM | 0.9 nM | IC50 [1, 18]: 0.8 nM
O=S(=O)(C1CC1)n1cc(-c2nccc(Nc3cc(N[C@H]4CC[C@@H](F)CC4)c(-c4ccc(CN5CCOCC5)cn4)cn3)n2)cn1 [Example 126, N^6′-(2-(1-(Cyclopropylsulfonyl)-1H-pyrazol-4-yl)pyrimidin-4-yl)-N^4′-((1s,4s)-4-fluorocyclohexyl)-5-(morpholinomethyl)-[2,3′-bipyridine]-4′,6′-diamine] | 2.7 nM | 12.1 nM | 12.6 nM | 45.7 nM | 1.2 nM | – | – | – | – | –
CC(C)(O)[C@H]1CC[C@@H](Nc2cc(Nc3ccnc(-c4cnn(S(=O)(=O)C5CC5)c4)n3)ncc2-c2ccc(OC(F)(F)F)cn2)CC1 [Example 196, 2-((1s,4s)-4-((6′-((2-(1-(Cyclopropylsulfonyl)-1H-pyrazol-4-yl)pyrimidin-4-yl)amino)-5-(trifluoromethoxy)-[2,3′-bipyridin]-4′-yl)amino)cyclohexyl)propan-2-ol] | – | – | – | – | – | – | – | – | – | IC50 [1, 12]: 14.7 nM; IC50 ([2]; IC50 del19/C797S, 100 μM ATP): 135 nM; IC50 ([3]; IC50 L858R/C797S, 100 μM ATP): > 10000 nM; IC50 ([4]; IC50 WT, 100 μM ATP): > 10000 nM; IC50 [5, 17]: 9.5 nM
C[C@]1(O)CC[C@@H](Nc2cc(Nc3ccnc(-c4cnn(S(=O)(=O)C5CC5)c4)n3)ncc2-c2cc(CN3CCOCC3)ccn2)CC1 [Example 61, (1s,4s)-4-((6′-((2-(1-(Cyclopropylsulfonyl)-1H-pyrazol-4-yl)pyrimidin-4-yl)amino)-4-(morpholinomethyl)-[2,3′-bipyridin]-4′-yl)amino)-1-methylcyclohexan-1-ol] | – | – | – | – | – | 0.4 nM | 1.8 nM | 3940 nM | 0.2 nM | IC50 [1, 18]: 0.2 nM
CC(C)(O)[C@H]1CC[C@@H](Nc2cc(Nc3ccnc(-c4cnn(S(=O)(=O)C5CC5)c4)n3)ncc2-c2cnc(OC(F)F)cn2)CC1 [Example 130, 2-((1s,4s)-4-((2-((2-(1-(Cyclopropylsulfonyl)-1H-pyrazol-4-yl)pyrimidin-4-yl)amino)-5-(5-(difluoromethoxy)pyrazin-2-yl)pyridin-4-yl)amino)cyclohexyl)propan-2-ol] | 3.9 nM | 281 nM | 239 nM | > 10000 nM | 1.7 nM | – | – | – | – | –
CN1CCC(Oc2ccc(-c3cnc(Nc4ccnc(-c5cnc6c(c5)CCCO6)n4)cc3N[C@H]3CC[C@@](C)(O)CC3)nc2)CC1 [Example 142, (1s,4s)-4-((6′-((2-(3,4-Dihydro-2H-pyrano[2,3-b]pyridin-6-yl)pyrimidin-4-yl)amino)-5-((1-methylpiperidin-4-yl)oxy)-[2,3′-bipyridin]-4′-yl)amino)-1-methylcyclohexan-1-ol] | 0.01 nM | 2 nM | 0.8 nM | 17.1 nM | 0.03 nM | – | – | – | – | –
O=S(=O)(C1CC1)n1cc(-c2nccc(Nc3cc(N[C@H]4CC[C@@H](F)CC4)c(-c4ccc(N5CCOCC5)cn4)cn3)n2)cn1 [Example 123, N^6′-(2-(1-(Cyclopropylsulfonyl)-1H-pyrazol-4-yl)pyrimidin-4-yl)-N^4′-((1s,4s)-4-fluorocyclohexyl)-5-morpholino-[2,3′-bipyridine]-4′,6′-diamine] | 2.6 nM | 28.6 nM | 2.3 nM | 22 nM | 0.7 nM | – | – | – | – | –
C[C@]1(O)CC[C@@H](Nc2cc(Nc3ccnc(-c4cnn(S(=O)(=O)C5CC5)c4)n3)ncc2-c2ccc(N3CCC(F)(F)CC3)nn2)CC1 [Example 68, (1s,4s)-4-((2-((2-(1-(Cyclopropylsulfonyl)-1H-pyrazol-4-yl)pyrimidin-4-yl)amino)-5-(6-(4,4-difluoropiperidin-1-yl)pyridazin-3-yl)pyridin-4-yl)amino)-1-methylcyclohexan-1-ol] | 0.9 nM | 2.8 nM | 1.1 nM | 23.2 nM | 0.8 nM | 4.9 nM | 124 nM | > 10000 nM | 0.8 nM | –
CN(C)S(=O)(=O)n1cc(-c2nccc(Nc3cc(N[C@H]4CC[C@@](C)(O)CC4)c(-c4ccc(CC(F)(F)F)cn4)cn3)n2)cn1 [Example 296, 4-(4-((4′-(((1s,4s)-4-Hydroxy-4-methylcyclohexyl)amino)-5-(2,2,2-trifluoroethyl)-[2,3′-bipyridin]-6′-yl)amino)pyrimidin-2-yl)-N,N-dimethyl-1H-pyrazole-1-sulfonamide] | – | – | – | – | – | – | – | – | – | IC50 [1, 11]: 4.5 nM; IC50 [2, 13]: 17.6 nM; IC50 [3, 14]: 10.1 nM; IC50 [4, 15]: 89.8 nM; IC50 [5, 16]: 3.7 nM
